Peptide text beside a SMILES is read from it.
Assays:
[1] = Dissolution time of α-APM granules in water; type: physicochemical; conditions: 8 g of sample in 2 liters of water, 20 °C, 350 rpm
Protocol: The dissolution time of the α-APM granules thus obtained was measured by the method mentioned below, and the results obtained are shown in Table 1.
First, 2 liters of water were previously put in a 3-liter beaker and stirred with a magnetic stirrer.
The size of the stirrer to be used for the stirring was 70 mm x 15 mm φ and the rotation number was set to be 350 rpm with Whatman Dataplate 440. The temperature of the water was kept to be 20 ° C by the use of a hot plate. 8 g of a sample was put into the water under the determined condition, whereupon the time needed for completely dissolving it in the water was measured to be the dissolution time of the sample.

[2] = relative to sucrose (cane sugar); cited from earlier work
[3] = Original Powder before Granulation
[4] = granules, Grain Size 100 to 150 µm
[5] = granules, Grain Size 150 to 180 µm
[6] = granules, Grain Size 180 to 300 µm
[7] = granules, Grain Size 300 to 500 µm
[8] = granules, Grain Size 500 to 850 µm
[9] = granules, Grain Size 850 to 1400 µm

Row | Compound | Dissolution Time [1, 3] [min] | Dissolution Time [1, 4] [min] | Dissolution Time [1, 5] [min] | Dissolution Time [1, 6] [min] | Dissolution Time [1, 7] [min] | Dissolution Time [1, 8] [min] | Dissolution Time [1, 9] [min] | sweetness [2]
1 | COC(=O)[C@H](Cc1ccccc1)NC(=O)[C@@H](N)CC(=O)O [sample A, α-L-aspartyl-L-phenylalanine methyl ester] (H-Asp-Phe-OMe) | 30 | 15 | 8 | 11 | 18 | 25 | 38 | –
2 | COC(=O)[C@H](Cc1ccccc1)NC(=O)[C@@H](N)CC(=O)O [sample B, α-L-aspartyl-L-phenylalanine methyl ester] (H-Asp-Phe-OMe) | 15 | 10 | 7 | 9 | 17 | 24 | 35 | –
3 | COC(=O)[C@H](Cc1ccccc1)NC(=O)[C@@H](N)CC(=O)O [sample C, α-L-aspartyl-L-phenylalanine methyl ester] (H-Asp-Phe-OMe) | 60 | 36 | 20 | 12 | 19 | 27 | 38 | –
4 | COC(=O)[C@H](Cc1ccccc1)NC(=O)[C@@H](N)CC(=O)O [α-APM, α-L-aspartyl-L-phenylalanine methyl ester] (H-Asp-Phe-OMe) | – | – | – | – | – | – | – | about 200 times that of sucrose
